Measured values from EP1795539B1, “Cell penetrating peptides for intracellular delivery of molecules” (Centre National de la Recherche Scientifique, priority 2005, dated 2007).
Where two headings read alike, the source gives them in different places. Peptide text beside a SMILES is read from it.

Tests used:
different cell lines = assay type: cell-based; conditions: 12 h
Procedure: • Figure 1 : Schematic representation of CADY cellular uptake mechanism. • Figure 2 : Structure of CADY in the interaction with the membrane. • (A) modelisation • (B) CD experiments - Far UV CD spectra were recorded on a JASCO J-810 spectro-polarimeter (JASCO Corporation, Tokyo, Japan) using a quartz cuvette with a path length of 1 mm. Spectra were corrected from the baseline buffer spectrum and smoothed with the JASCO software. Peptides were dissolved to a fixed concentration of 50 µM in water or in PBS. CD spectra were collected at 23°C and each spectrum represents the average of 4 scans. […] Binding of cargoes to CADY was monitored by steady state fluorescence spectroscopy. The intrinsic fluorescence associated to the Trp residues of CADY was used as sensitive probe. The fluorescence of CADY is centered at 340 nm upon excitation at 290 nm. […] The knockdown of the GAPDH at the protein level was quantified 48 hrs after transfection by Western blot analysis using polyclonal antibody (Ref. ABCAM GAPDH antibody - ab9385 rabbit polyclonal). […] The size of the particle was determined by light scattering and the knock down of GAPDH protein was quantified by Western blot analysis. • (B) role of the endosomal pathway on the efficiency of CADY-mediated siRNA delivery. […]

HS-68 and Hela cells = assay: Toxicity of CADY variants, MTT cell viability assay (Table 1); assay type: cell-based
Procedure: The toxicity of CADY peptides has been investigated on different cell lines. Cells were incubated in the presence of increasing concentrations of CADY (from 0.1 µM to 1 mM) for 12 hrs and cell viability was estimated using MTT assay.

[1] = tested on: 5PC3 or Human H1299 adenocarcinoma cells; assay: Intravenous injection of carrier/anti-cyclin B1 siRNA complexes, tumor growth; assay type: in vivo, NCR nude mice; conditions: one intravenous injection, siRNA 10 µg, ratio 1:20

EC50 (different cell lines) | SMILES | EC50 (HS-68 and Hela cells; free peptide, MTT, read-out: free EC50) | EC50 (HS-68 and Hela cells; 12 h) | tumor growth [1]
500 µM | CC(=O)NCC(=O)N[C@@H](CC(C)C)C(=O)N[C@@H](Cc1c[nH]c2ccccc12)C(=O)N[C@@H](CCCNC(=N)N)C(=O)N[C@@H](C)C(=O)N[C@@H](CC(C)C)C(=O)N[C@@H](Cc1c[nH]c2ccccc12)C(=O)N[C@@H](CCCNC(=N)N)C(=O)N[C@@H](CC(C)C)C(=O)N[C@@H](CC(C)C)C(=O)N[C@@H](CCCNC(=N)N)C(=O)N[C@@H](CO)C(=O)N[C@@H](CC(C)C)C(=O)N[C@@H](Cc1c[nH]c2ccccc12)C(=O)N[C@@H](CCCNC(=N)N)C(=O)N[C@@H](CC(C)C)C(=O)N[C@@H](CC(C)C)C(=O)N[C@@H](Cc1c[nH]c2ccccc12)C(=O)N[C@@H](CCCCN)C(=O)N[C@@H](C)C(=O)NCCS [CADY-1] (HELM PEPTIDE1{[ac].G.L.W.R.A.L.W.R.L.L.R.S.L.W.R.L.L.W.K.A.[SCCN[*:1]]}$$$$V2.0) | 400 µM | – | –
– | CC(C)CCC[C@@H](C)[C@H]1CC[C@H]2[C@@H]3CC=C4C[C@@H](OC(=O)NCC(=O)N[C@@H](CC(C)C)C(=O)N[C@@H](Cc5c[nH]c6ccccc56)C(=O)N[C@@H](CCCNC(=N)N)C(=O)N[C@@H](C)C(=O)N[C@@H](CC(C)C)C(=O)N[C@@H](Cc5c[nH]c6ccccc56)C(=O)N[C@@H](CCCNC(=N)N)C(=O)N[C@@H](CC(C)C)C(=O)N[C@@H](CC(C)C)C(=O)N[C@@H](CCCNC(=N)N)C(=O)N[C@@H](CO)C(=O)N[C@@H](CC(C)C)C(=O)N[C@@H](Cc5c[nH]c6ccccc56)C(=O)N[C@@H](CCCNC(=N)N)C(=O)N[C@@H](CC(C)C)C(=O)N[C@@H](CC(C)C)C(=O)N[C@@H](Cc5c[nH]c6ccccc56)C(=O)N[C@@H](CCCCN)C(=O)N[C@@H](C)C(=O)NCCS)CC[C@]4(C)[C@H]3CC[C@]12C [CADY-S] (HELM PEPTIDE1{[CC(C)CCC[C@@H](C)[C@H]1CC[C@H]2[C@@H]3CC=C4C[C@@H](OC(=O)[*:2])CC[C@]4(C)[C@H]3CC[C@]12C].G.L.W.R.A.L.W.R.L.L.R.S.L.W.R.L.L.W.K.A.[SCCN[*:1]]}$$$$V2.0; N-terminus assumed) | – | 200 µM | fully abolish the tumor growth
